Measured values from ChEMBL document CHEMBL1240494, “Radiosynthesis and in vivo evaluation of [(11)C]MC80 for P-glycoprotein imaging” (Bioorg Med Chem, 2010).

Legend:
[1] = Ratio of drug uptake in testes to blood in FVB mouse at 18.5 MBq, iv after 30 mins postinjection; type: ADME, organism-based; conditions: in vivo, 0.5 h
Lung [2] = assay: Biodistribution in mdr1a deficient mouse lung at 4.5 MBq, iv after 1 min postinjection; type: ADME, organism-based; conditions: in vivo
Heart [3] = assay: Biodistribution in mdr1a deficient mouse heart at 4.5 MBq, iv after 60 mins postinjection; type: ADME, organism-based; conditions: in vivo, 1 h
Liver [4] = assay: Biodistribution in FVB mouse liver at 4.5 MBq, iv after 60 mins postinjection pretreated with cyclosporin A; type: ADME, organism-based; conditions: in vivo, 1 h
Brain [5] = assay: Biodistribution in FVB mouse brain at 4.5 MBq, iv after 1 min postinjection; type: ADME, organism-based; conditions: in vivo
[6] = Ratio of drug uptake in brain to blood in FVB mouse at 18.5 MBq, iv after 90 mins postinjection; type: ADME, organism-based; conditions: 1.5 h
[7] = Biodistribution in FVB mouse large intestine at 4.5 MBq, iv after 90 mins postinjection; type: ADME, organism-based; conditions: in vivo, 1.5 h
Spleen = assay: Biodistribution in FVB mouse spleen at 4.5 MBq, iv after 60 mins postinjection pretreated with cyclosporin A; type: ADME, organism-based; conditions: in vivo, 1 h
Kidney [8] = assay: Biodistribution in mdr1a deficient mouse kidney at 4.5 MBq, iv after 60 mins postinjection; type: ADME, organism-based; conditions: in vivo, 1 h
Liver [9] = assay: Biodistribution in FVB mouse liver at 4.5 MBq, iv; type: ADME, organism-based; conditions: in vivo
Lung [10] = assay: Biodistribution in FVB mouse lung at 4.5 MBq, iv after 1 min postinjection; type: ADME, organism-based; conditions: in vivo
[11] = Partition coefficient, log D of the compound; type: physicochemical; conditions: octanol/water
Brain [12] = assay: Biodistribution in mdr1a deficient mouse brain at 4.5 MBq, iv after 60 mins postinjection; type: ADME, organism-based; conditions: in vivo, 1 h
[13] = Ratio of drug uptake in brain to blood in FVB mouse at 18.5 MBq, iv after 30 mins postinjection pretreated with cyclosporin A; type: ADME, organism-based; conditions: 0.5 h
Liver [14] = assay: Biodistribution in mdr1a deficient mouse liver at 4.5 MBq, iv after 60 mins postinjection; type: ADME, organism-based; conditions: in vivo, 1 h
Blood = assay: Biodistribution in FVB mouse blood at 4.5 MBq, iv after 1 min postinjection; type: ADME, organism-based; conditions: in vivo
[15] = Biodistribution in FVB mouse large intestine at 4.5 MBq, iv after 1 min postinjection; type: ADME, organism-based; conditions: in vivo
Kidney [16] = assay: Biodistribution in FVB mouse kidney at 4.5 MBq, iv after 60 mins postinjection pretreated with cyclosporin A; type: ADME, organism-based; conditions: in vivo, 1 h
[17] = Biodistribution in FVB mouse small intestine at 4.5 MBq, iv after 90 mins postinjection; type: ADME, organism-based; conditions: in vivo, 1.5 h
Pancreas = assay: Biodistribution in FVB mouse pancreas at 4.5 MBq, iv after 60 mins postinjection pretreated with cyclosporin A; type: ADME, organism-based; conditions: in vivo, 1 h
[18] = Ratio of drug uptake in brain to blood in FVB mouse at 18.5 MBq, iv after 30 mins postinjection; type: ADME, organism-based; conditions: 0.5 h
Brain [19] = assay: Biodistribution in FVB mouse brain at 4.5 MBq, iv after 90 mins postinjection; type: ADME, organism-based; conditions: in vivo, 1.5 h
[20] = Biodistribution in FVB mouse testes at 4.5 MBq, iv after 60 mins postinjection pretreated with cyclosporin A; type: ADME, organism-based, Testis; conditions: in vivo, 1 h
Heart [21] = assay: Biodistribution in FVB mouse heart at 4.5 MBq, iv after 1 min postinjection; type: ADME, organism-based; conditions: in vivo
[22] = Ratio of drug uptake in brain to blood in FVB mouse at 18.5 MBq, iv after 1 min postinjection pretreated with cyclosporin A; type: ADME, organism-based
[23] = Biodistribution in FVB mouse small intestine at 4.5 MBq, iv after 1 min postinjection; type: ADME, organism-based; conditions: in vivo

COc1cc2c(cc1OC)CN(Cc1ccc3cc(O[11CH3])ccc3c1)CC2
Ratio [1]: 3.04 | Drug uptake (Lung [2]): 31.35 % ID/g | Drug uptake (Heart [3]): 10.69 % ID/g | Drug uptake (Liver [4]): 4.86 % ID/g | Drug uptake (Brain [5]): 7.66 % ID/g | Ratio [6]: 1.05 | Drug uptake [7]: 2.18 % ID/g | Drug uptake (Spleen): 1.52 % ID/g | Drug uptake (Kidney [8]): 2.46 % ID/g | Drug uptake (Liver [9]): 8.71 % ID/g | Drug uptake (Lung [10]): 31.35 % ID/g | logD [11]: 1.96 | Drug uptake (Brain [12]): 1.09 % ID/g | Ratio [13]: 1.5 | Drug uptake (Liver [14]): 4.86 % ID/g | Drug uptake (Blood): 2.56 % ID/g | Drug uptake [15]: 1.83 % ID/g | Drug uptake (Kidney [16]): 2.46 % ID/g | Drug uptake [17]: 11.78 % ID/g | Drug uptake (Pancreas): 6.85 % ID/g | Ratio [18]: 2.17 | Drug uptake (Brain [19]): 0.9 % ID/g | Drug uptake [20]: 2.56 % ID/g | Drug uptake (Heart [21]): 10.69 % ID/g | Ratio [22]: 2.91 | Drug uptake [23]: 3.89 % ID/g
